In US20210338665A1, “MEDICAL USE OF PROSTACYCLIN RECEPTOR AGONIST” (CHINESE PLA GENERAL HOSPITAL, priority 2018, published 2021):

System: SD rats in a low-pressure low-oxygen environment
Test: Rat high altitude model in a low-pressure low-oxygen cabin (380 mmHg, simulated altitude of 5,500 meters): cardio-pulmonary function
Type: in vivo
Settings: twice every day for 14 days, compared with the model group; for mean pulmonary arterial pressure (mPAP): P<0.05
Experimental: 40 SD rats (about 200 g, male, clean) are purchased from Beijing Vital River Laboratory Animal Technology Co. Ltd and have the license number of SCXK(Jing)2016-0006. The SD rats are fed in a low-pressure oxygen cabin, and regularly fed with a complete nutritional feed under the conditions of the room temperature of 22 to 25° C. and the humidity of 30% to 50%.
Solvent configuration: 20% of HP-β-CD and 80% of double distilled water, and pH=8.
A blank control group: normal-pressure normal-oxygen feeding
A model group: a low-pressure low-oxygen cabin, and intragastric administration of a solvent
An experimental group A: a low-pressure low-oxygen cabin, and intragastric administration of sc0253 (5 mg/kg) as well as a solvent
An experimental group B: a low-pressure low-oxygen cabin, and intragastric administration of sc0253 (10 mg/kg) as well as a solvent
40 rats are randomly divided into four groups, and each group includes 10 rats. 3 groups are placed into an experiment module, the pressure inside the module is regulated to 380 mmHg, a high altitude environment with an altitude of 5,500 meters is simulated, the experiment module is opened for 1 hour every day so as to add feed and water for animals and carry out corresponding medicine treatment, meanwhile, the environment where the rats are positioned are kept alternate day and night according to a ratio of 12h:12h, and after 14 days, intragastric administration is respectively carried out in which the solvent (the model group), the sc0253 (5 mg/kg) and the solvent (the experimental group A) or the sc0253 (10 mg/kg) and the solvent (the experimental group B) are respectively applied, and the operation is carried out twice every day and continued for 14 days. Rats in the fourth group are placed in the same room to be fed in the normal-pressure normal-oxygen environment (the blank control group).
3% pentobarbital sodium (0.2 mL/100 g) is intraperitoneally injected to anesthetize the rats, and ultrasonic detection is carried out. The following ultrasonic data is recorded: right ventricular ejection fraction (RVEF); and right ventricular fractional shortening (RVFS). Then the anesthetized rats are fixed on an operating table in a supine position mode, tracheotomy is carried out, a breathing machine is connected, thoracotomy is carried out to expose the hearts, a catheter is inserted into each right ventricle, right heart catheterization is carried out, and the right ventricular systolic pressure is recorded. Then each catheter is slowly pushed forwards, and can reach a corresponding pulmonary artery through a corresponding right ventricular outflow tract, the pressure waveform of a monitor is observed, and the mean pulmonary arterial pressure mPAP is recorded. The rats are executed, the hearts are taken out, the atrial tissue and attached fat are removed, left and right ventricles are separated, moisture is sucked up by filter paper, the weights of the right ventricles and the left ventricles are respectively weighed, and (RV/(LV+IS)) is calculated.
All the data is represented by x±s, comparison among the groups is single factor analysis of variance, when P<0.05, it represents that the difference has a statistical significance, and statistical treatment is carried out by adopting an SPSS19.0 software package.

[1] = experimental group B: sc0253 10 mg/kg intragastric, ultrasonic detection, P<0.01

O=C(O)COCC1(F)CCN(c2cncc(N(c3ccccc3)c3ccc(F)cn3)n2)CC1 [sc0253]
mean pulmonary arterial pressure (mPAP) (experimental group A: sc0253 5 mg/kg intragastric): obviously reduced | right ventricular hypertrophy index RV/(LV+OS) (experimental group B: sc0253 10 mg/kg intragastric, P<0.01): obviously reduced | mean pulmonary arterial pressure (mPAP) (experimental group B: sc0253 10 mg/kg intragastric): obviously reduced | right ventricular ejection fraction (RVEF) [1]: obviously increased | right ventricular fractional shortening (RVFS) [1]: obviously increased
